Data published in paper PMC8453936, “Development and in vitro Profiling of Dual FXR/LTA4H Modulators” (Chemmedchem, 2021).
Values joined by “and” are separate entries in the source; they are usually repeats but may differ in a detail not shown here. Equal entries are not always repeated.

Target: T1, full-length human FXR (Homo sapiens, UniProt Q96RI1)
T1 construct: coding for the full‐length human nuclear receptors FXR and RXRα; expressed in transfected cells; host or cells: HeLa
T1 sequence (Q96RI1 1-486): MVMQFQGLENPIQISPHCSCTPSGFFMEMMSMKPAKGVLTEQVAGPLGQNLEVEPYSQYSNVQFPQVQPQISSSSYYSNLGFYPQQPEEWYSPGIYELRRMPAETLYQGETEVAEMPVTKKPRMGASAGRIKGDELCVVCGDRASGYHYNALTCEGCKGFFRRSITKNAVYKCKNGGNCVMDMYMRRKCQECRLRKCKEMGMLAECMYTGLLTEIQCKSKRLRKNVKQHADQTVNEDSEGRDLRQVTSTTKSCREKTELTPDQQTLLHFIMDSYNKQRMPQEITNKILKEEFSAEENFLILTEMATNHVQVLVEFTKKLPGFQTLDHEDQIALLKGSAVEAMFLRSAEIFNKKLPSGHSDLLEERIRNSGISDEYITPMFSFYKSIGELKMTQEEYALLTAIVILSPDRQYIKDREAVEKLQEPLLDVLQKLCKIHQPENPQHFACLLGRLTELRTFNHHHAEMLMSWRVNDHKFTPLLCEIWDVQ
T1 sequence (P19793 1-462 partner): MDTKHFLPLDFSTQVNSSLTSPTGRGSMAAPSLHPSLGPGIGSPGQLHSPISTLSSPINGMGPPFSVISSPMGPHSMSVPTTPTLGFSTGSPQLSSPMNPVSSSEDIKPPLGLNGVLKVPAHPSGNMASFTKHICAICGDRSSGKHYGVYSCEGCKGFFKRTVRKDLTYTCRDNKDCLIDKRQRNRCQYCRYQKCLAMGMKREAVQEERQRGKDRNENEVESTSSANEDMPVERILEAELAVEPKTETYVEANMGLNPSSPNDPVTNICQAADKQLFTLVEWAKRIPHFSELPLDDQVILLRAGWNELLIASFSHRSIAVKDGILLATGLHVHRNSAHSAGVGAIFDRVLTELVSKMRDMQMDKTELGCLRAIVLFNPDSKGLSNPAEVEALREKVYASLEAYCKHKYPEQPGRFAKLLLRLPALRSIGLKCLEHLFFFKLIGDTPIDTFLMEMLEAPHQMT
Assay: Full-length FXR:RXR reporter gene assay (BSEP promoter, HeLa, transiently transfected)
Type: cell-based
Conditions: 3 μM GW4064 = 100 % activation; mean±S.E.M., n≥3
Experimental: Full‐length FXR:RXR reporter gene assay. HeLa cells were grown in DMEM high glucose supplemented with 10 % FCS, sodium pyruvate (1 mM), penicillin (100 U/mL) and streptomycin (100 μg/mL) at 37 °C and 5 % CO2 and seeded in 96‐well plates 24 h before transfection with a density of 8000 cells per well. 3.5 h before transfection, medium was changed to DMEM high glucose, supplemented with sodium pyruvate (1 mM), penicillin (100 U/mL), streptomycin (100 μg/mL) and 0.5 % charcoal‐stripped FCS. Cells were then transiently transfected with using the calcium phosphate transfection method with pGL3basic‐BSEP[26, 27] (containing a shortened construct of the promotor of the bile salt export protein (BSEP) cloned into the SacI/NheI cleavage site in front of the luciferase gene), pcDNA3‐hFXR[26] and pSG5‐hRXR[38] coding for the full‐length human nuclear receptors FXR and RXRα, and pRL‐SV40 (Promega) for normalization of transfection efficiency and cell growth. 16 h after transfection, medium was changed to DMEM high glucose, supplemented with sodium pyruvate (1 mM), penicillin (100 U/mL), streptomycin (100 μg/mL) and 0.5 % charcoal‐stripped FCS. 24 h after transfection, medium was changed to DMEM without phenol red, supplemented with sodium pyruvate (1 mM), penicillin (100 U/mL), streptomycin (100 μg/mL), L‐glutamine (2 mM) and 0.5 % charcoal‐stripped FCS, now additionally containing 0.1 % DMSO and the respective test compound or 0.1 % DMSO alone as untreated control. Each sample was tested in triplicate wells and each experiment was repeated independently at least three times. Following 24 h incubation with the test compounds, cells were assayed for luciferase activity using Dual‐Glo Luciferase Assay System (Promega) according to the manufacturer's protocol. Luminescence was measured with a Tecan Spark M luminometer (Tecan). Normalization of transfection efficiency and cell growth was done by division of firefly luciferase data by Renilla luciferase data multiplied by 1000 resulting in relative light units (RLU). Fold activation was obtained by dividing the mean RLU of the tested compound at a respective concentration by the mean RLU of untreated control. EC50 and standard error of the mean values were calculated with the mean fold activation values of at least three independent experiments with SigmaPlot 10.0 (Systat Software GmbH, Erkrath, Germany) using a four‐parameter logistic regression.

Row | Structure (SMILES) | FXR efficacy (maximum FXR activation relative to 3 μM GW4064)
1 | O=C(O)c1cccc(NC(=O)c2ccc(Oc3cccc(-c4ccccc4)c3)cc2)c1 [compound 12] | 14% and 14±1%
2 | O=C(Nc1nc(C(=O)O)co1)c1ccc(OCCCc2ccccc2)cc1 [compound 20] | 30±1%
3 | CS(=O)(=O)Nc1cccc(NC(=O)c2ccc(OCCCc3ccccc3)cc2)c1 [compound 18] | 35±2%

Same assay, conditions: full-length FXR reporter gene assay, BSEP promoter, HeLa; mean±S.E.M., n≥3

Row | Structure (SMILES) | EC50 [nM]
4 | O=C(O)c1cccc(NC(=O)c2ccc(Oc3cccc(-c4ccccc4)c3)cc2)c1 [compound 12] | 300 ± 100
5 | O=C(Nc1nc(C(=O)O)co1)c1ccc(OCCCc2ccccc2)cc1 [compound 20] | 11000 ± 2000
6 | CS(=O)(=O)Nc1cccc(NC(=O)c2ccc(OCCCc3ccccc3)cc2)c1 [compound 18] | 1600 ± 400
7 | O=C(O)Cc1cccc(NC(=O)c2ccc(OCCCc3ccccc3)cc2)c1 [compound 17] | > 30000

Target: T1, full-length human FXR
Assay: not given
Conditions: 3 μM GW4064 = 100 % activation; mean±S.E.M., n≥3; previously reported; cited from earlier work

Row | Structure (SMILES) | FXR efficacy (maximum FXR activation relative to 3 μM GW4064)
8 | O=C(O)c1ccnc(NC(=O)c2ccc(Oc3ccccc3)cc2)c1 [compound 15] | 56±1%
9 | O=C(O)c1cccc(NC(=O)c2ccc(OCCCCc3ccccc3)cc2)c1 [compound 3] | 34% and 34±1%
10 | O=C(O)c1cccc(NC(=O)c2ccc(OCCc3ccccc3)cc2)c1 [compound 9] | 56±1%
11 | O=C(O)c1cccc(NC(=O)c2ccc(OCc3ccccc3)cc2)c1 [compound 10] | 20±1%
12 | O=C(O)c1cccc(NC(=O)c2ccc(Oc3ccccc3)cc2)c1 [compound 11] | 35±1%
13 | O=C(O)c1ccc(NC(=O)c2ccc(OCCCCc3ccccc3)cc2)cc1 [compound 7] | 29±1%
14 | COc1c(NC(=O)c2ccc(OCCCCc3ccccc3)cc2)cccc1C(=O)O [compound 6] | 26±1%

Same assay, conditions: full-length FXR reporter gene assay, BSEP promoter, HeLa; mean±S.E.M., n≥3; previously reported; cited from earlier work

Row | Structure (SMILES) | EC50(FXR) | EC50 [nM]
15 | O=C(Nc1cccc2c(=O)cc(C(=O)O)oc12)c1ccc(OCCCCc2ccccc2)cc1 [compound 5] | inactive (50 μM) | 
16 | O=C(O)c1ccnc(NC(=O)c2ccc(Oc3ccccc3)cc2)c1 [compound 15] |  | 70 ± 20
17 | O=C(O)c1cccc(NC(=O)c2ccc(OCCc3ccccc3)cc2)c1 [compound 9] |  | 150 ± 20
18 | O=C(Nc1cccc(C(=O)O)n1)c1ccc(Oc2ccccc2)cc1 [compound 13] | antagonist | 
19 | O=C(O)c1cccc(NC(=O)c2ccc(Oc3ccccc3)cc2)c1 [compound 11] |  | 1 ± 0.3
20 | O=C(O)c1ccc(NC(=O)c2ccc(OCCCCc3ccccc3)cc2)cc1 [compound 7] |  | 14 ± 1
21 | COc1c(NC(=O)c2ccc(OCCCCc3ccccc3)cc2)cccc1C(=O)O [compound 6] |  | 190 ± 20

Target: T2, recombinant human LTA4H (Homo sapiens, UniProt P09960)
T2 sequence (P09960 1-611): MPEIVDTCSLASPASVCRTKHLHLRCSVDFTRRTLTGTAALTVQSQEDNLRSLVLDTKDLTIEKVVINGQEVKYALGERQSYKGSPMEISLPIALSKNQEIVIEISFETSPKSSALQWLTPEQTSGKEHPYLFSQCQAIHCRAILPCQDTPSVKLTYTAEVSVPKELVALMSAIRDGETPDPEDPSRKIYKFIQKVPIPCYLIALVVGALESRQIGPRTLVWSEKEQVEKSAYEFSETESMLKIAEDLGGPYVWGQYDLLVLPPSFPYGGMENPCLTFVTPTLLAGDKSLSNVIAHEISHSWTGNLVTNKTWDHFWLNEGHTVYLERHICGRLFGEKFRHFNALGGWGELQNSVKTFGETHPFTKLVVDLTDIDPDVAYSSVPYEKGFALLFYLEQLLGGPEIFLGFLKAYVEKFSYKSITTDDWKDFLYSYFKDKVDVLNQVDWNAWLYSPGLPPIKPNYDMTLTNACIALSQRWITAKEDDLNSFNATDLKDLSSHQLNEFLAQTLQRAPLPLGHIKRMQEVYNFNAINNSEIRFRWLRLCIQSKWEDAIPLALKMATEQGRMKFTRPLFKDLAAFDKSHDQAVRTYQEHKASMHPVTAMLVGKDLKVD
Assay: not given
Conditions: not given

Row | Structure (SMILES) | IC50 [nM]
22 | O=C(Nc1cccc2c(=O)cc(C(=O)O)oc12)c1ccc(OCCCCc2ccccc2)cc1 [compound 5] | 15000 ± 2000
23 | O=C(Nc1cccc2c(=O)cc(-c3nnn[nH]3)oc12)c1ccc(OCCCCc2ccccc2)cc1 [compound 4, pranlukast, reference compound] | 1600 ± 200
24 | CS(=O)(=O)Nc1cccc(NC(=O)c2ccc(OCCCc3ccccc3)cc2)c1 [compound 18] | 130 ± 10
25 | O=C(O)c1ccc(NC(=O)c2ccc(OCCCc3ccccc3)cc2)cc1 [compound 16] | 200 ± 20
26 | O=C(O)Cc1cccc(NC(=O)c2ccc(OCCCc3ccccc3)cc2)c1 [compound 17] | 1900 ± 100
27 | O=C(O)c1ccc(NC(=O)c2ccc(OCCCCc3ccccc3)cc2)cc1 [compound 7] | 370 ± 20
28 | COc1c(NC(=O)c2ccc(OCCCCc3ccccc3)cc2)cccc1C(=O)O [compound 6] | 5500 ± 500

Second part, the molecule after the results:

Row | IC50 [nM] | Structure (SMILES)
29 | 5200 ± 600 | O=C(O)c1cccc(NC(=O)c2ccc(Oc3cccc(-c4ccccc4)c3)cc2)c1 [compound 12]
30 | 2100 ± 100 | O=C(O)c1ccnc(NC(=O)c2ccc(Oc3ccccc3)cc2)c1 [compound 15]
31 | 540 ± 70 | O=C(O)c1cccc(NC(=O)c2ccc(OCCCCc3ccccc3)cc2)c1 [compound 3]
32 | 950 ± 10 | O=C(Nc1ccnc(C(=O)O)c1)c1ccc(Oc2ccccc2)cc1 [compound 14]
33 | 610 ± 60 | O=C(O)c1cccc(NC(=O)c2ccc(OCCc3ccccc3)cc2)c1 [compound 9]
34 | 1100 ± 100 | O=C(O)c1cccc(NC(=O)c2ccc(OCc3ccccc3)cc2)c1 [compound 10]
35 | 280 ± 20 | O=C(Nc1cccc(C(=O)O)n1)c1ccc(Oc2ccccc2)cc1 [compound 13]
36 | 550 ± 60 | O=C(O)c1cccc(NC(=O)c2ccc(Oc3ccccc3)cc2)c1 [compound 11]

Same assay, conditions: LTA4H inhibition at the highest tested concentration (up to 100 μM); mean±S.E.M., n=3

Row | Structure (SMILES) | LTA4H max. inhib. [%]
37 | O=C(Nc1cccc2c(=O)cc(C(=O)O)oc12)c1ccc(OCCCCc2ccccc2)cc1 [compound 5] | 80±5
38 | O=C(Nc1nc(C(=O)O)co1)c1ccc(OCCCc2ccccc2)cc1 [compound 20] | 99.7±0.1
39 | O=C(Nc1cccc2c(=O)cc(-c3nnn[nH]3)oc12)c1ccc(OCCCCc2ccccc2)cc1 [compound 4, pranlukast, reference compound] | 82.6±0.8
40 | CS(=O)(=O)Nc1cccc(NC(=O)c2ccc(OCCCc3ccccc3)cc2)c1 [compound 18] | 89.5±0.5
41 | O=C(O)c1ccc(NC(=O)c2ccc(OCCCc3ccccc3)cc2)cc1 [compound 16] | 98.8±0.1
42 | O=C(O)Cc1cccc(NC(=O)c2ccc(OCCCc3ccccc3)cc2)c1 [compound 17] | 97.0±0.2
43 | O=C(O)c1ccc(NC(=O)c2ccc(OCCCCc3ccccc3)cc2)cc1 [compound 7] | 97.8±0.1
44 | COc1c(NC(=O)c2ccc(OCCCCc3ccccc3)cc2)cccc1C(=O)O [compound 6] | 85±2

Next, values leading:

Row | LTA4H max. inhib. [%] | Structure (SMILES)
45 | 81.1±0.6 | O=C(O)c1cccc(NC(=O)c2ccc(Oc3cccc(-c4ccccc4)c3)cc2)c1 [compound 12]
46 | 89.6±0.6 | O=C(O)c1ccnc(NC(=O)c2ccc(Oc3ccccc3)cc2)c1 [compound 15]
47 | 97.2±0.4 | O=C(O)c1cccc(NC(=O)c2ccc(OCCCCc3ccccc3)cc2)c1 [compound 3]
48 | 97.9±0.1 | O=C(Nc1ccnc(C(=O)O)c1)c1ccc(Oc2ccccc2)cc1 [compound 14]
49 | 96.0±0.2 | O=C(O)c1cccc(NC(=O)c2ccc(OCCc3ccccc3)cc2)c1 [compound 9]
50 | 94.9±0.2 | O=C(O)c1cccc(NC(=O)c2ccc(OCc3ccccc3)cc2)c1 [compound 10]
51 | 90.8±0.3 | O=C(Nc1cccc(C(=O)O)n1)c1ccc(Oc2ccccc2)cc1 [compound 13]
52 | 98.2±0.1 | O=C(O)c1cccc(NC(=O)c2ccc(Oc3ccccc3)cc2)c1 [compound 11]
